Experiments:
PLK1 [1] = target: T1, PLK1 (Homo sapiens, UniProt P53350); assay: Cellular PLK1 assay in K562 cells overexpressing CDC25C; format: cell-based; set-up: endogenous in cells; host or cells: K562 (human chronic myelogenous leukemia) overexpressing CDC25C, nocodazole-arrested; details: nocodazole arrested, cdc25c p-Ser198 readout
Procedure, shortened: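 K562 cells overexpressing CDC25C were arrested with 333 nM nocodazole for 18 h at 37 °C, then exposed to compound at 8 points from 10 μM to 0.005 μM in duplicate for 120 min. After fixation and permeabilization, cells were stained for cdc25c pSer198 with a PE secondary and read by flow cytometry, 10,000 cells per well.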

PLK1 [2] = target: T1, PLK1; assay: In vitro PLK1 ELISA assay (biochemical); set-up: purchased Cell Signalling 7728
Procedure, shortened: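 Commercial PLK1 phosphorylates neutravidin-captured biotinylated CHK2 peptide for 45 min at room temperature in HEPES pH 7.2 with Mg2+/Mn2+/DTT, compounds at 10 μM to 0.005 μM. Phospho-CHK2(T68) antibody plus HRP secondary gives chemiluminescent read-out used for IC50.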

[3] = ELISA, CHK2-derived peptide substrate, read-out: PLK1 IC50 (μM) biochemical assay
[4] = read-out: IC50 in biochemical ELISA assay (less than 0.01 μM)
[5] = read-out: IC50 in biochemical in vitro PLK1 ELISA assay (less than 10 μM)

T1 sequence (P53350 whole entry): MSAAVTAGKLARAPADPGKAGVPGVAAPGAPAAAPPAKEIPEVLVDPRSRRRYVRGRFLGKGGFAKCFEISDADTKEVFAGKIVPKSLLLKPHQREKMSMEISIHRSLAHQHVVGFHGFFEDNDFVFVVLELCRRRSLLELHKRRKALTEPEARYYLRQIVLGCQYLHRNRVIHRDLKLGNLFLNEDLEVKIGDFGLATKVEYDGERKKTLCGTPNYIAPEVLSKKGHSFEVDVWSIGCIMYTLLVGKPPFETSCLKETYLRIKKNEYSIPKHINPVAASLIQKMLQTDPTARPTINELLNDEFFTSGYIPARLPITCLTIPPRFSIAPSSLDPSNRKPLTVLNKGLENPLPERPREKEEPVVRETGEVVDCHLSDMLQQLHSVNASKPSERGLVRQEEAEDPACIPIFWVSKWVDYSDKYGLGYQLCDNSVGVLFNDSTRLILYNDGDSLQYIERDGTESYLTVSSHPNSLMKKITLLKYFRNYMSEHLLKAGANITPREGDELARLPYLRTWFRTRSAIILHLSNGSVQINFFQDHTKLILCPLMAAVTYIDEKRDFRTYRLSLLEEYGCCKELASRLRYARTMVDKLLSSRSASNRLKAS

| Structure (SMILES) | IC50 (PLK1 [1]) [µM] | IC50 (PLK1 [2]; [3]) [µM] | IC50 (PLK1 [2]; [4]) [µM] | IC50 (PLK1 [2]; [5]) [µM] |
| --- | --- | --- | --- | --- |
| Cc1cc(Nc2ncc(C)c(Nc3ccc4c(n3)N(Cc3ccccc3)C(=O)CO4)n2)ccc1N1CCN(C)CC1 [compound 121, 4-benzyl-6-(5-methyl-2-(3-methyl-4-(4-methylpiperazin-1-yl)phenylamino)pyrimidin-4-ylamino)-2H-pyrido[3,2-b][1,4]oxazin-3(4H)-one] | 0.5 to 5 | ≥ 10 |  |  |
| Cc1cnc(Nc2cccc(N3CCN(C)CC3)c2)nc1Nc1ccc2c(n1)N(Cc1ccccc1)C(=O)CO2 [compound 122, 4-benzyl-6-(5-methyl-2-(3-(4-methylpiperazin-1-yl)phenylamino)pyrimidin-4-ylamino)-2H-pyrido[3,2-b][1,4]oxazin-3(4H)-one] | 0.5 to 5 | < 0.5 | < 0.01 | < 10 |
| COc1ccc(CN2C(=O)COc3ccc(Nc4nc(Nc5cccc(N6CCN(C)CC6)c5)ncc4F)nc32)cc1 [compound 123, 6-(5-fluoro-2-(3-(4-methylpiperazin-1-yl)phenylamino)pyrimidin-4-ylamino)-4-(4-methoxybenzyl)-2H-pyrido[3,2-b][1,4]oxazin-3(4H)-one] | ≥ 10 | ≥ 10 |  |  |
| COc1ccc(CN2C(=O)COc3ccc(Nc4nc(Nc5ccc(N6CCN(C)CC6)c(C)c5)ncc4F)nc32)cc1 [compound 124, 6-(5-fluoro-2-(3-methyl-4-(4-methylpiperazin-1-yl)phenylamino)pyrimidin-4-ylamino)-4-(4-methoxybenzyl)-2H-pyrido[3,2-b][1,4]oxazin-3(4H)-one] | ≥ 10 | ≥ 10 |  |  |
| COc1ccc(CN2C(=O)COc3ccc(Nc4nc(Nc5cccc(N6CCN(C)CC6)c5)ncc4C)nc32)cc1 [compound 125, 4-(4-methoxybenzyl)-6-(5-methyl-2-(3-(4-methylpiperazin-1-yl)phenylamino)pyrimidin-4-ylamino)-2H-pyrido[3,2-b][1,4]oxazin-3(4H)-one] | ≥ 10 | 5 to 10 |  | < 10 |
| COc1ccc(CN2C(=O)COc3ccc(Nc4nc(Nc5ccc(N6CCN(C)CC6)c(C)c5)ncc4C)nc32)cc1 [compound 126, 4-(4-methoxybenzyl)-6-(5-methyl-2-(3-methyl-4-(4-methylpiperazin-1-yl)phenylamino)pyrimidin-4-ylamino)-2H-pyrido[3,2-b][1,4]oxazin-3(4H)-one] | 0.5 to 5 | ≥ 10 |  |  |
| C#CCN1C(=O)COc2ccc(Nc3nc(Nc4cccc(N5CCN(C)CC5)c4)ncc3C)nc21 [compound 127, 6-(5-methyl-2-(3-(4-methylpiperazin-1-yl)phenylamino)pyrimidin-4-ylamino)-4-(prop-2-ynyl)-2H-pyrido[3,2-b][1,4]oxazin-3(4H)-one] | < 0.5 | < 0.5 | < 0.01 | < 10 |
| C#CCN1C(=O)COc2ccc(Nc3nc(Nc4cccc(N5CCN(C)CC5)c4)ncc3F)nc21 [compound 128, 6-(5-fluoro-2-(3-(4-methylpiperazin-1-yl)phenylamino)pyrimidin-4-ylamino)-4-(prop-2-ynyl)-2H-pyrido[3,2-b][1,4]oxazin-3(4H)-one] | 0.5 to 5 | < 0.5 | < 0.01 | < 10 |
| Cc1cnc(Nc2cccc(N3CCN(C)CC3)c2)nc1Nc1ccc2c(n1)N(CC1CC1)C(=O)CO2 [compound 129, 4-(cyclopropylmethyl)-6-(5-methyl-2-(3-(4-methylpiperazin-1-yl)phenylamino)pyrimidin-4-ylamino)-2H-pyrido[3,2-b][1,4]oxazin-3(4H)-one] | 0.5 to 5 | < 0.5 | < 0.01 | < 10 |
| Cc1cnc(Nc2cccc(N3CCN(C)CC3)c2)nc1Nc1ccc2c(n1)N(CC1CCC1)C(=O)CO2 [compound 130, 4-(cyclobutylmethyl)-6-(5-methyl-2-(3-(4-methylpiperazin-1-yl)phenylamino)pyrimidin-4-ylamino)-2H-pyrido[3,2-b][1,4]oxazin-3(4H)-one] | 0.5 to 5 | < 0.5 | < 0.01 | < 10 |
| CN1CCN(c2cccc(Nc3ncc(F)c(Nc4ccc5c(n4)N(C4CCCC4)C(=O)CO5)n3)c2)CC1 [compound 131, 4-cyclopentyl-6-(5-fluoro-2-(3-(4-methylpiperazin-1-yl)phenylamino)pyrimidin-4-ylamino)-2H-pyrido[3,2-b][1,4]oxazin-3(4H)-one] | ≥ 10 | 0.5 to 5 |  | < 10 |
| CN1CCN(c2cccc(Nc3ncc(F)c(Nc4ccc5c(n4)N(Cc4ccc(F)cc4)C(=O)CO5)n3)c2)CC1 [compound 132, 6-(5-fluoro-2-(3-(4-methylpiperazin-1-yl)phenylamino)pyrimidin-4-ylamino)-4-(4-fluorobenzyl)-2H-pyrido[3,2-b][1,4]oxazin-3(4H)-one] | 0.5 to 5 | 5 to 10 |  | < 10 |
| Cc1cnc(Nc2cccc(N3CCN(C)CC3)c2)nc1Nc1ccc2c(n1)N(Cc1ccc(F)cc1)C(=O)CO2 [compound 133, 4-(4-fluorobenzyl)-6-(5-methyl-2-(3-(4-methylpiperazin-1-yl)phenylamino)pyrimidin-4-ylamino)-2H-pyrido[3,2-b][1,4]oxazin-3(4H)-one] | 0.5 to 5 | < 0.5 |  | < 10 |
| CCC(CC)N1C(=O)COc2ccc(Nc3nc(Nc4cccc(N5CCN(C)CC5)c4)ncc3F)nc21 [compound 134, 6-(5-fluoro-2-(3-(4-methylpiperazin-1-yl)phenylamino)pyrimidin-4-ylamino)-4-(pentan-3-yl)-2H-pyrido[3,2-b][1,4]oxazin-3(4H)-one] | < 0.5 | < 0.5 | < 0.01 | < 10 |
| CCCN1C(=O)COc2ccc(Nc3nc(Nc4ccc(N5CCN(C)CC5)c(C(F)(F)F)c4)ncc3F)nc21 [compound 135, 6-(5-fluoro-2-(4-(4-methylpiperazin-1-yl)-3-(trifluoromethyl)phenyl-amino)pyrimidin-4-ylamino)-4-propyl-2H-pyrido[3,2-b][1,4]oxazin-3(4H)-one] | ≥ 10 | ≥ 10 |  |  |
| CCCN1C(=O)COc2ccc(Nc3nc(Nc4ccc(N5CCN(C)CC5)c(C(F)(F)F)c4)ncc3C)nc21 [compound 136, 6-(5-methyl-2-(4-(4-methylpiperazin-1-yl)-3-(trifluoromethyl)phenyl-amino)pyrimidin-4-ylamino)-4-propyl-2H-pyrido[3,2-b][1,4]oxazin-3(4H)-one] | ≥ 10 | ≥ 10 |  |  |
| CCCN1C(=O)COc2ccc(Nc3nc(Nc4ccc(N5CCN(S(C)(=O)=O)CC5)c(C(F)(F)F)c4)ncc3F)nc21 [compound 137, 6-(5-fluoro-2-(4-(4-(methylsulfonyl)piperazin-1-yl)-3-(trifluoro-methyl)phenyl-amino)pyrimidin-4-ylamino)-4-propyl-2H-pyrido[3,2-b][1,4]oxazin-3(4H)-one] | ≥ 10 | ≥ 10 |  |  |
| CCCN1C(=O)COc2ccc(Nc3nc(Nc4ccc(N5CCNCC5)c(C(F)(F)F)c4)ncc3F)nc21 [compound 138, 6-(5-fluoro-2-(4-(piperazin-1-yl)-3-(trifluoromethyl)phenyl-amino)pyrimidin-4-ylamino)-4-propyl-2H-pyrido[3,2-b][1,4]oxazin-3(4H)-one] | ≥ 10 | ≥ 10 |  |  |

— patent US9040527B2, “Pyrimidinediamine kinase inhibitors” (Rigel Pharmaceuticals, Inc., priority 2008, dated 2015)
